Laboratory results taken from US5863950A, “HIV protease inhibitors” (Agouron Pharmaceuticals, Inc., priority 1994, dated 1999).
Values after ≈ are worked out from the molar mass of the structure shown. Like-named read-outs stand apart in the source and are kept apart here.

Experiments:
HIV-1 (CEM cells) = test: Anti-HIV MTT assay, inhibition of HIV-induced cell killing, CEM cells; assay type: cell-based, HIV-1 isolates IIIB and/or RF; conditions: Human immunodeficiency virus 1, CCRF-CEM, 144 h, CEM cell line (first position), 6 days, 37° C., read-out: Viral CEM
From the text: (§1) SRI has an established program for the primary antiviral analysis of compounds in microtiter assays which measure the ability of a selected compound to inhibit HIV-induced cell killing. This assay involves the conversion of the tetrazolium dye MTT to a colored formazan product by mitochondrial enzymes in metabolically active cells. This assay system is presently used at SRI to screen over 30,000 compounds per year. Briefly, the assay involves the infection of CEM or MT2 cells in round bottom 96-well plates. The compound of interest is added just prior to infection. Following 6 days of incubation at 37° C. the plates are stained with MTT. The results of the assay are quantitated spectrophotometrically on a Molecular Devices Vmax plate reader. The data is analyzed by linear regression utilizing an in-house software program to calculate antiviral activity. (IC25, IC50, IC95) and toxicity (TC25, TC50, TC95) as well as other values.
(§2) Primary antiviral assays are routinely performed in CEM or MT-2 cells.
(§3) Drugs will be solubilized in the appropriate vehicle such as distilled water or DMSO if necessary. Latex gloves, lab coats and masks are used during all phases of the handling process to prevent exposure to potentially harmful agents. The drug is prepared at the appropriate concentration and stored at -20° C. until used by the screening laboratory. The first dilution of each compound is made in a dilution tube with medium to yield a concentration two-fold that of the highest test concentration. Sterile titer tubes are then used to make serial one half-log dilutions of each compound. Following drug dilution, the diluted compound is added to the appropriate well of a 96-well microtiter plate. Up to 12 dilutions can be assayed conveniently in triplicate on a single plate with all appropriate controls including cell control, virus control, toxicity control, drug color control, medium control and plastic (background) control. When testing includes only six dilutions, two drugs can be assayed on a single microtiter plate. The drugs are added to the plate in a final volume of 100 microliters.
(§4) During the time the drug dilutions are prepared, cells are washed and counted. Viability is monitored by trypan blue dye exclusion and assays are not performed if the viability falls below 90%. Cells are maintained in an exponential growth phase and are split 1:2 on the day prior to assay to assure exponential growth rate.
(§5) For the primary screen, the cell lines utilized are CEM and MT-2. Unless otherwise indicated, the medium used is RPMI 1640 with 10% heat-inactivated fetal calf serum (FBS), glutamine and antibiotics.
(§6) Cells are propagated at 37° C. in an atmosphere of 5% CO2 in air. The virus employed for this work is HIV-1 isolates IIIB and/or RF, which are prepared by an acute infection process.
(§7) Briefly, virus-infected cells are pelleted on a daily basis beginning at three days post-infection until the virus has killed all of the cells in the culture. Reverse transcriptase activity and p24 ELISA are used to identify pools with the greatest amount of virus.
(§8) These 24-hour harvests are pooled, filtered and frozen at -90° C. Prior to use in the assay, the infectious pool of virus is titered on all available cell lines in order to determine the amount of virus required in the antiviral assay.
(§9) In general, pools produced by the acute infection method require the addition of one microliter of infectious virus per well resulting in the screening of drugs at a multiplicity of infection of 0.01. In this manner enough virus is prepared and frozen to complete over one thousand microtiter plates, allowing the testing of up to two thousand compounds from a single stock of infectious virus. The use of a single stock of virus for a long period of testing has very favorable effects on the repeatability of the assay systems.
(§10) Virus infection of the CEM and MT-2 cells for the antiviral assay is carried out in a bulk infection process. […]

HIV-1 (MT-2 cells) = test: Anti-HIV MTT assay, inhibition of HIV-induced cell killing, MT-2 cells; assay type: cell-based, HIV-1 isolates IIIB and/or RF; conditions: Human immunodeficiency virus 1, MT2, 144 h; MT-2 cells (second position), 6 days, 37° C., MTT; read-out: Viral MT-2
From the text: as §1, §2, §3, §4, §5, §6, §7, §8, §9, §10

HIV-1 protease = target: T1, HIV-1 protease (Human immunodeficiency virus type 1 group M subtype B, UniProt P04585); test: biochemical; assay type: biochemical
T1 construct: purified HIV-1 protease
Method: 1. Proteolytic activity of purified HIV-1 protease was routinely measured using the chromogenic assay developed by Richards et al. (J. Biol. Chem. 265: 7733 (1990)). Synthetic peptide His-Lys-Ala-Arg-Val-Leu-Phe (pNO2)-Glu-Ala-Nle-Ser-NH2 (American Peptide Company) was used as the substrate.
2. The assay was carried out in 0.5M NaCl, 50 mM MES pH 5.6, 2% DMSO (dimethylsulfoxide) at 37° C. Cleavage of the scissile bond between leucine and paranitro-phenylalanine (Phe(pNO2)) was assayed by spectrophotometric monitoring of the decrease in absorbance at 305 nm. Initial velocity was determined as the rate of decline of absorbance during the first 100 seconds of reaction.
3. […] Between 15-25 concentrations of inhibitor were added and velocity of reaction was measured at each of the concentrations, as described above.
4. Inhibition constants were calculated using the method of Jackson et al. (Adv. in Enzyme Regulation 22: 187 (1984)).

[1] = 0.5M NaCl, 50 mM MES pH 5.6, 2% DMSO, 37° C., 200 μM substrate

Row | IC50 (HIV-1 protease; [1]) [nM] | Ki (HIV-1 protease; [1]) [nM] | IC50 (HIV-1 protease) [nM] | Ki (HIV-1 protease) [nM] | Molecule | IC50 (HIV-1 (CEM cells)) [µg/mL] | IC50 (HIV-1 (MT-2 cells)) [µg/mL] | Km (HIV-1 protease; substrate, standard conditions, read-out: Michaelis constant (Km)) [µM]
1 | 104 | 2.3 |  |  | CCC1(N(CCO)C(=O)c2ccccc2CCC(O)Cc2ccccc2C(=O)N(CCO)C2(c3ccccc3)CCCC2)CCCC1 (centres unmarked) [Example 93] | 1.35 (≈ 2.11 µM) | 1.67 (≈ 2.61 µM) | 
2 | 141 | 0.55 |  |  | CCC1(N(CCO)C(=O)c2ccccc2CCC(O)Cc2ccc(C)cc2C(=O)N(CCO)C2(c3ccccc3)CCCC2)CCCC1 (centres unmarked) [Example 94] | 0.52 (≈ 0.794 µM) | 1.47 (≈ 2.24 µM) | 
3 | 90 | 1.5 |  |  | CCC1(N(CCO)C(=O)c2ccccc2CCC(O)Cc2ccccc2C(=O)N(CCO)C(CC)(CC)c2ccccc2)CCCC1 (centres unmarked) [Example 95] | 0.6 (≈ 0.933 µM) | 1.46 (≈ 2.27 µM) | 
4 |  |  | 63 | 4 | CCC1(N(CCO)C(=O)c2ccccc2CCC(O)Cc2ccc(C)cc2C(=O)N(CCO)C(C)(C)c2ccc(O)cc2)CCCC1 (centres unmarked) [Example 96] | 0.57 (≈ 0.884 µM) | 1.18 (≈ 1.83 µM) | 
5 | 225 | 38 |  |  | CCC1(N(CCO)C(=O)c2ccccc2CCC(O)Cc2ccccc2C(=O)N(CCO)C23CCCCC2CCCC3)CCCC1 (centres unmarked) [Example 97] | 1.58 (≈ 2.5 µM) | > 10 | 
6 | 196 | 15 |  |  | CCSc1ccc(CC(O)CCc2ccccc2C(=O)N(CCO)C2(CC)CCCC2)c(C(=O)N(CCO)C(C)(C)c2ccccc2)c1 (centres unmarked) [Example 99] | 1.62 (≈ 2.4 µM) | 5.75 (≈ 8.52 µM) | 

Continued, molecule first:

Row | Molecule | IC50 (HIV-1 protease; [1]) [nM] | Ki (HIV-1 protease; [1]) [nM] | IC50 (HIV-1 protease) [nM] | Ki (HIV-1 protease) [nM] | IC50 (HIV-1 (CEM cells)) [µg/mL] | IC50 (HIV-1 (MT-2 cells)) [µg/mL] | Km (HIV-1 protease; substrate, standard conditions, read-out: Michaelis constant (Km)) [µM]
7 | CC(C)(C)N(CCO)C(=O)c1ccccc1CCC(O)Cc1ccccc1C(=O)N(CCOc1ccncc1)C(C)(C)c1ccccc1 (centres unmarked) [Example 83] | 2500 | 735 |  |  | > 100 | > 100 | 
8 | Cc1ccc(CCC(O)Cc2ccccc2C(=O)N(CCOCc2ccccc2)C(C)(C)c2ccccc2)c(C(=O)N(CCO)C(C)(C)C)c1 (centres unmarked) [Example 84] | 351 | 315 |  |  | > 100 | > 100 | 
9 | CCc1ccc(CC(O)CCc2ccccc2C(=O)N(CCO)C(C)(C)c2ccccc2)c(C(=O)N(CCO)C(C)(C)c2ccccc2)c1 (centres unmarked) [Example 89] | 144 | 17 |  |  | 1 (≈ 1.5 µM) | 1.79 (≈ 2.69 µM) | 
10 | Cc1cc(CC(O)CCc2ccccc2C(=O)N(CCO)C(C)(C)C)c(C(=O)N(CCO)C(C)(C)c2ccccc2)cc1C (centres unmarked) [Example 90] | 200 | 176 |  |  |  |  | 
11 | CC(C)(C)N(CCO)C(=O)c1ccccc1CCC(O)Cc1ccccc1C(=O)N(CCO)C(C)(C)c1ccccc1 (centres unmarked) [Example 91] | 274 | 172 |  |  | 1.95 (≈ 3.39 µM) | 5.28 (≈ 9.19 µM) | 
12 | CCCC(CC)(CC)N(CCO)C(=O)c1ccccc1CC(O)CCc1ccccc1C(=O)N(CCO)C(C)(C)C (centres unmarked) [Example 92] | 183 | 88 |  |  | 2.12 (≈ 3.73 µM) | 5.06 (≈ 8.9 µM) | 
13 | CCC1(N(CCO)C(=O)c2ccccc2CCC(O)Cc2ccc(C)cc2C(=O)N(CCO)C(C)(C)c2ccc(OCc3cccnc3)cc2)CCCC1 (centres unmarked) [Example 98] | 103 | 2 |  |  | 0.48 (≈ 0.652 µM) | 1.94 (≈ 2.64 µM) | 
14 | CCC1(N(CCO)C(=O)c2ccccc2CC[C@@H](O)Cc2ccc(C)cc2C(=O)N(CCO)C(C)(C)c2ccccc2)CCCC1 [Example 112] |  |  |  |  | 0.54 (≈ 0.859 µM) | 1.47 (≈ 2.34 µM) | 
15 | His-Lys-Ala-Arg-Val-Leu-Phe (pNO2)-Glu-Ala-Nle-Ser-NH2 [reference compound] |  |  |  |  |  |  | 52 ± 16
